Measurements: patent US7919505B2, “Xinafoate salt of a substituted 5-oxazol-2-yl-quinoline compound” (Schering Corporation, priority 2006, dated 2011)
Counter-ions that a name gives are not always drawn.

What was measured:
[1] = Physical properties of salts of Compound A (hygroscopicity, hydrate stability); format: physicochemical; settings: solid salt
rats = experiment: Lung function assay (forced expiratory maneuvers after ovalbumin challenge); format: in vivo; settings: 5 hr before antigen challenge
Experimental: Two fasted Sprague Dawley rats were dosed orally at 10 mpk with compound in 0.4% HPMC vehicle. The dose volume was 5 ml/kg dose. Plasma was collected at 0.5, 1, 2, 3, 4, and 6 hr. Blood samples were collected with heparin, and the plasma was stored with EDTA.
Lung function was measured using a forced expiratory maneuvers technique. In this procedure, the rats were anesthetized and a tracheal catheter was inserted. The rats were placed inside a whole body plethysmograph that contained a breathing valve capable of separating inflations and deflations of the lungs. The lungs were then subject to forced inflation of the lungs to total lung capacity followed by rapid deflation to residual volume. Measurements of forced vital capacity and peak expiratory flow were used to measure the effects of antigen challenge and assess the inhibitory effects of the compound of formula I. The drug was admixed with lactose for intratracheal delivery and given directly into the trachea with a fine microsprayer 5 hr before the antigen challenge. Orally delivered compound was given in 0.4% methylcellulose vehicle 5 hr before the antigen challenge. Control animals received intratracheal lactose or methylcellulose, respectively. The antigen challenge consisted of aerosolized exposure for 30 min to 1% ovalbumin. Forced expiratory lung functions were measured 24 hr after the antigen (ovalbumin) exposure.

inflammatory cells = experiment: Allergic Brown-Norway rat assay: inhibition of recruitment of inflammatory cells into the airways (BALF cell counts after OVA challenge); format: in vivo, Brown-Norway rats
Experimental: Assay Protocol for Allergic Brown-Norway Rats:
Inbred male BN rats weighing 150 to 200 g were obtained from Charles River Laboratory (Wilmington, Mass.). Prior to use, the animals were allowed food and water ad libitum. The test compounds were administered 5 h prior to antigen challenge either by oral or inhalational route, as detailed in the “delivery of test compounds” section.
Sensitization and Antigen Bronchoprovocation
The animals were divided into two main groups viz. an alum group and an antigen group. In the antigen group, animals were sensitized by an intra-peritoneal (i.p.) injection of 1 ml alum-precipitated antigen containing 20 μg of ovalbumin (OVA, grade III; Sigma chemical Co., St Louis, Mo.) and 8 mg of Al(OH)3 suspended in 0.9% saline vehicle. A booster injection of this alum-OVA mixture was given again 7 days later. Animals belonging to the alum group received injections containing alum only. Seven days after the second injection, animals were exposed to aerosolized antigen bronchoprovocation which was performed by placing the rats in an enclosed plexiglass chamber (21 liters) and exposing the rats to aerosolized OVA (1%) for 30 min. The aerosolized OVA was produced by an ultrasonic nebulizer (DeVilbiss, Somerset, Pa., USA; Model Ultra-Neb 99) at a flow rate of approximately 8 liters/min. […]

Rat PK assay = format: in vivo, Sprague Dawley rats; settings: Sprague Dawley, plasma, 30 mg/kg, 30 mpk po
Experimental: Using the above test procedure, the following results were obtained: • tartrate salt: monkey AUC=30 ng.h/mL at 10 mpk po • xinafoate salt: monkey AUC=0 ng.h/mL at 10 mpk po Assay Protocol for Rat PK Assay:
[…] The dose volume was 5 ml/kg dose. Plasma was collected at 0.5, 1, 2, 3, 4, and 6 hr. Blood samples were collected with heparin, and the plasma was stored with EDTA.

fumarate
stability of crystalline forms [1]: unstable hydrates

CCOC(=O)[C@@H]1C[C@@H](NC(=O)C2CC2)CN1C(=O)c1nc(-c2ccc(OC)c3nc(C(F)(F)F)ccc23)oc1[C@H](C)N [xinafoate salt, xinafoate salt of 1-[[5-(1(S)-aminoethyl)-2-[8-methoxy-2-(trifluoromethyl)5-quinolyl]-4-oxazolyl]carbonyl]-4(R)-[(cyclopropyl-carbonyl)amino]-L-proline, ethyl ester]
inhibition of forced vital capacity (FVC) (rats; 0.02 mpk it (intra-tracheal)): 54% | inhibition of forced vital capacity (FVC) (rats; 3 mpk po): 31% | hygroscopicity [1]: non-hygroscopic | inhibition of inflammatory cells (inflammatory cells; 0.02 mpk, intra-tracheal dosing, 5 h prior to antigen challenge, allergic BN rats): 69% | better inhibition of inflammatory cells via intra-trachea administration compared to oral administration (inflammatory cells; intra-trachea vs oral administration): 25 fold | AUC (Rat PK assay): 350 ng·h/mL
